{"source": "the OPERA property sets (Mansouri et al. 2018)"}
{"details": "not given"}
{"smiles": "Cc1ccc(-c2ccc(C)cc2)cc1", "logP": 5.09}
{"smiles": "CCCC(=NOCC)C1=C(O)CC(CC(C)SCC)CC1=O", "note": "(stereo not given)", "logP": 4.38}
{"smiles": "O=[N+]([O-])c1ccc2c(c1)CCN2", "logP": 2.07}
{"smiles": "N#CC(C#N)=Cc1ccc(Cl)o1", "logP": 2.17}
{"smiles": "CCCCNCc1ccccc1", "logP": 2.59}
{"smiles": "O=S(=O)(C(Cl)(Cl)Cl)C(Cl)(Cl)Cl", "logP": 3.3}
{"smiles": "CCC1CCCCC1", "logP": 4.56}
{"smiles": "CC1CCc2cc(F)cc3c(=O)c(C(=O)O)cn1c23", "note": "(stereo not given)", "logP": 1.6}
{"smiles": "CCC(=O)OCC1OC(n2cnc3c(OC)ncnc32)C(OC(=O)CC)C1OC(=O)CC", "note": "(stereo not given)", "logP": 2.75}
{"smiles": "CCOc1cc(C=O)ccc1O", "logP": 1.58}
{"smiles": "O=C(CS(=O)(=O)c1ccccc1)c1ccc(Cl)cc1", "logP": 2.69}
{"smiles": "Clc1c(Cl)c(Cl)c2c(oc3c(Cl)c(Cl)c(Cl)c(Cl)c32)c1Cl", "logP": 8.6}
{"smiles": "CC(=O)O[C@@H]1C[C@H]2CC[C@]1(C)C2(C)C", "logP": 4.3}
{"smiles": "O=C1OC(c2ccc(O)cc2)(c2ccc(O)cc2)c2ccccc21", "logP": 2.89}
{"smiles": "CCCCOCCNc1ccc(Cl)cc1C(N)=O", "logP": 2.99}
{"smiles": "CC(=O)Nc1ncc2ncn(COCCOC(C)=O)c2n1", "logP": -1.05}
{"smiles": "O=c1ccn(C2OC(CO)C(O)C2O)c(=O)n1Cc1ccccc1", "note": "(stereo not given)", "logP": 0.33}
{"smiles": "O=C(c1ccc(Cl)cc1)c1cc(F)ccc1O", "logP": 4.05}
{"smiles": "CCCCC(O)CCC", "note": "(stereo not given)", "logP": 2.68}
{"smiles": "NC(=S)NN=Cc1ccc([N+](=O)[O-])o1", "logP": 1.64}
{"smiles": "CC(C)Oc1c(Br)c(Br)n(C)c1C(=O)Nc1nn[nH]n1", "logP": 2.52}
{"smiles": "Cc1ccc(C=C(C#N)C#N)o1", "logP": 2.03}
{"smiles": "CC1CCC(=O)N1C", "note": "(stereo not given)", "logP": -0.07}
{"smiles": "CCCSc1ccc2[nH]c(NC(=O)OC)nc2c1", "logP": 3.07}
{"smiles": "CC(C)(C)[N+]([O-])=Cc1ccc(F)cc1", "logP": 1.42}
{"smiles": "CC1CCCCC1O", "note": "(stereo not given)", "logP": 1.82}
{"smiles": "O=C(O)CCCCn1nnc2ccccc21", "logP": 0.48}
{"smiles": "O=[N+]([O-])c1ccc(Cl)cc1Cl", "logP": 3.07}
{"smiles": "c1ccc2cc3c(cc2c1)-c1cccc2cccc-3c12", "logP": 6.11}
{"smiles": "CCON=C(CC)C1=C(O)CC(c2c(C)cc(C)cc2C)CC1=O", "note": "(stereo not given)", "logP": 4.46}
{"details": "22 °C", "units": {"solubility": "mM"}}
{"smiles": "CC(C)Nc1nc(Cl)nc(NC2CC2)n1", "solubility": 0.303}
{"details": "22.0 °C"}
{"smiles": "CCCCCCl", "log10 OH rate constant (cm³/molecule/s)": -11.5}
{"details": "23.0 °C"}
{"smiles": "CC1=CCCC(C)=CCC(C)(C)C=CC1", "log10 OH rate constant (cm³/molecule/s)": -9.54}
{"smiles": "CC1=CC[C@@]23CC1C(C)(C)[C@@H]2CC[C@H]3C", "log10 OH rate constant (cm³/molecule/s)": -10.2}
{"smiles": "CCOC(=O)C(C)O", "note": "(stereo not given)", "log10 OH rate constant (cm³/molecule/s)": -11.4}
{"details": "24 °C", "units": {"solubility": "mM"}}
{"smiles": "Clc1cc(Cl)c(-c2cc(Cl)c(Cl)cc2Cl)cc1Cl", "solubility": "2.63e-06"}
{"details": "24.0 °C"}
{"smiles": "c1ccc(Oc2ccccc2)cc1", "log10 OH rate constant (cm³/molecule/s)": -11}
{"details": "25 °C", "units": {"solubility": "mM"}}
{"smiles": "O=[N+]([O-])c1ccc2c3c(cccc13)CC2", "solubility": 0.00457}
{"smiles": "CCOC=O", "solubility": 1190}
{"smiles": "CC(Cl)C(Cl)Cl", "note": "(stereo not given)", "solubility": 12.9}
{"smiles": "C=C(C)C(=O)OCCCC", "solubility": 5.63}
{"smiles": "O=[N+]([O-])c1cccc2ccccc12", "solubility": 0.053}
{"smiles": "CCS(=O)(=O)c1cccnc1S(=O)(=O)NC(=O)Nc1nc(OC)cc(OC)n1", "solubility": "< 0.0232"}
{"smiles": "C[Si](C)(C)O[Si](C)(C)O[Si](C)(C)C", "solubility": 0.000144}
{"smiles": "Nc1ncc2ncn(COCCO)c2n1", "solubility": 83.7}
{"smiles": "O=[N+]([O-])c1ccc(Nc2ccc(O)cc2)c([N+](=O)[O-])c1", "solubility": 0.0036}
{"smiles": "O=P(Oc1ccccc1)(Oc1ccccc1)Oc1ccccc1", "solubility": 0.00582}
{"smiles": "ClC(Cl)=C(Cl)C(Cl)=C(Cl)Cl", "solubility": 0.0123}
{"smiles": "COCCc1ccc(OCC(O)CNC(C)C)cc1", "note": "(stereo not given)", "solubility": 63.2}
{"smiles": "c1ccc2c(c1)ccc1c3ccc4ccccc4c3[nH]c21", "solubility": "3.78e-05"}
{"smiles": "CCOP(=O)(N=C1SCCS1)OCC", "solubility": 2.55}
{"smiles": "CCCCCCC(C)O", "note": "(racemic)", "solubility": 9.2}
{"smiles": "OCc1cccc2ccccc12", "solubility": 18}
{"smiles": "CCCCOC(=O)c1ccccc1", "solubility": 0.331}
{"smiles": "c1ccc(Oc2ccccc2)cc1", "solubility": 0.106}
{"smiles": "OCCCc1ccccc1", "solubility": 41.7}
{"smiles": "c1ccc2c(c1)-c1cccc3cccc-2c13", "solubility": 0.00114}
{"smiles": "O=[N+]([O-])c1ccc2ccccc2c1", "solubility": 0.0534}
{"smiles": "Clc1c(Cl)c(Cl)c2c(oc3c(Cl)c(Cl)c(Cl)c(Cl)c32)c1Cl", "solubility": "2.61e-09"}
{"smiles": "O=C(O)C(Br)(Br)Br", "solubility": 674}
{"smiles": "CN(C)c1ccccc1", "solubility": 12}
{"smiles": "CC(C)(C)c1ccc(O)c(O)c1", "solubility": 12}
{"details": "25.0 °C"}
{"smiles": "CCCCCCCl", "log10 OH rate constant (cm³/molecule/s)": -11.4}
{"smiles": "Oc1cccc2ccccc12", "log10 OH rate constant (cm³/molecule/s)": -9.26}
{"smiles": "COC(=O)CCC(=O)OC", "log10 OH rate constant (cm³/molecule/s)": -11.9}
{"smiles": "O=CCCl", "log10 OH rate constant (cm³/molecule/s)": -11.5}
{"smiles": "CCCCCl", "log10 OH rate constant (cm³/molecule/s)": -11.8}
{"smiles": "c1ccc2c(c1)Oc1ccccc1O2", "log10 OH rate constant (cm³/molecule/s)": -10.9}
{"smiles": "CCBr", "log10 OH rate constant (cm³/molecule/s)": -12.5}
{"smiles": "CCC(CC)(CC)CC", "log10 OH rate constant (cm³/molecule/s)": -11.3}
{"smiles": "FC(F)(F)C(Cl)Br", "note": "(stereo not given)", "log10 OH rate constant (cm³/molecule/s)": -13.3}
{"smiles": "FC(F)(F)COCC(F)(F)F", "log10 OH rate constant (cm³/molecule/s)": -12.8}
{"smiles": "CC(=O)O[C@@H]1CC2CCC1(C)C2(C)C", "note": "(stereo not given in full)", "log10 OH rate constant (cm³/molecule/s)": -10.9}
{"smiles": "FC1(F)OC(F)(F)C1(F)F", "log10 OH rate constant (cm³/molecule/s)": "< -15.7"}
{"smiles": "C=CC1(C)CCC(O)O1", "note": "(stereo not given)", "log10 OH rate constant (cm³/molecule/s)": -10.1}
{"smiles": "c1ccc2c(c1)-c1cccc3cccc-2c13", "log10 OH rate constant (cm³/molecule/s)": -10.3}
{"smiles": "CCCCOCC=O", "log10 OH rate constant (cm³/molecule/s)": -10.7}
{"smiles": "CCOC(=O)NC", "log10 OH rate constant (cm³/molecule/s)": -11.1}
{"details": "26 °C", "units": {"solubility": "mM"}}
{"smiles": "CCNc1nc(O)nc(NC(C)C)n1", "solubility": 0.0299}
{"details": "30 °C", "units": {"solubility": "mM"}}
{"smiles": "Fc1ccccc1", "solubility": 16}
